Experimental data published in ChEMBL document CHEMBL1201862, “PubChem BioAssay data set” (2004).
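Grown in 96-well plates, cells were treated for 48 hours with each compound at five concentrations. Insufficient inhibition: endpoint recorded as highest concentration tested. GI50 = concentration required for 50% inhibition of growth.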 The source made the active and inactive calls. Rule as the data show it: active = GI50 up to about 1.1 µM and inactive = higher.

Tests used:
Experiment in all cases: DTP human tumour cell line panel, 48 h
[1] = system: HOP-62
[2] = system: RXF 393
[3] = system: SF-539
[4] = system: U-251
[5] = system: HCC 2998
[6] = system: ACHN
[7] = system: HT-29
[8] = system: A549
[9] = system: COLO 205
[10] = system: SW-620
[11] = system: Malme-3M
[12] = system: KM12
[13] = system: NCI-H460
[14] = system: SN12C
[15] = system: SF-268
[16] = system: DMS-273
[17] = system: XF498
[18] = system: SK-OV-3
[19] = system: HL-60
[20] = system: HCT-116
[21] = system: UACC-257
[22] = system: SK-MEL-2
[23] = system: NCI-H522
[24] = system: 786-0
[25] = system: DLD-1
[26] = system: RXF 631
[27] = system: UACC-62
[28] = system: A498
[29] = system: M19-MEL
[30] = system: SF-295
[31] = system: LOX IMVI
[32] = system: K562
[33] = system: LXFL 529
[34] = system: HCT-15
[35] = system: SK-MEL-28
[36] = system: SNB-78
[37] = system: TK-10
[38] = system: IGROV-1
[39] = system: MOLT-4
[40] = system: NCI-H23
[41] = system: OVCAR-3
[42] = system: OVCAR-5
[43] = system: EKVX
[44] = system: SK-MEL-5
[45] = system: SNB-19
[46] = system: UO-31
[47] = system: CAKI-1
[48] = system: OVCAR-8
[49] = system: DMS-114
[50] = system: SNB-75
[51] = system: OVCAR-4
[52] = system: RPMI-8226
[53] = system: HOP-92
[54] = system: CCRF-CEM
[55] = system: M14
[56] = system: NCI-H226
[57] = system: KM-20L2
[58] = system: SR
[59] = system: HOP-18

Measured: GI50

CC(O)/C=C/C(CCC(C)CO)C(C)C (centres undefined)
inactive: [1] > 100 µM | [2] > 100 µM | [3] > 100 µM | [4] > 100 µM | [5] > 100 µM | [6] > 100 µM | [7] > 100 µM | [8] > 100 µM | [9] > 100 µM | [10] > 100 µM | [11] > 100 µM | [12] > 100 µM | [13] > 100 µM | [14] > 100 µM | [15] > 100 µM | [16] > 100 µM | [17] > 100 µM | [18] > 100 µM | [19] > 100 µM | [20] > 100 µM | [21] > 100 µM | [22] > 100 µM | [23] > 100 µM | [24] > 100 µM | [25] > 100 µM | [26] > 100 µM | [27] > 100 µM | [28] > 100 µM | [29] > 100 µM | [30] > 100 µM | [31] > 100 µM | [32] > 100 µM | [33] > 100 µM | [35] > 100 µM | [36] > 100 µM | [37] > 100 µM | [38] > 100 µM | [39] > 100 µM | [40] > 100 µM | [41] > 100 µM | [42] > 100 µM | [43] > 100 µM | [44] > 100 µM | [45] > 100 µM | [46] > 100 µM | [47] > 100 µM | [48] > 100 µM | [49] > 100 µM | [50] > 100 µM | [51] > 100 µM | [52] > 100 µM | [53] > 100 µM | [54] > 100 µM | [55] > 100 µM
> 100 µM: [34]

O=c1c2cc(Br)ccc2nc(CCl)n1-c1ccc(O)c([N+](=O)[O-])c1
inactive: [1] 20.9 µM | [2] 12.9 µM | [3] 19.2 µM | [4] 38.9 µM | [5] 19.9 µM | [6] 26.4 µM | [7] 27.7 µM | [8] 22.4 µM | [9] 20.3 µM | [10] 19.2 µM | [11] 17.5 µM | [12] 19 µM | [13] 34.1 µM | [14] 18.8 µM | [15] 20.8 µM | [17] 15.4 µM | [18] 37.8 µM | [19] 23.2 µM | [21] 19.1 µM | [22] 16 µM | [23] 18.8 µM | [24] 16.1 µM | [25] 17.7 µM | [26] > 10 µM | [27] 26.6 µM | [28] 20.1 µM | [29] 19.8 µM | [30] 16.3 µM | [31] 19 µM | [32] 22.4 µM | [33] 20.9 µM | [35] 17.6 µM | [36] 22.9 µM | [37] 18.7 µM | [38] 24 µM | [39] 23.1 µM | [40] 16.7 µM | [41] 18.2 µM | [42] 63.5 µM | [43] 17.5 µM | [44] 15.9 µM | [46] 15.5 µM | [47] 21.7 µM | [48] 19.9 µM | [50] 20.8 µM | [51] 18.7 µM | [52] 25 µM | [53] 29.2 µM | [54] 22.4 µM | [56] 14.5 µM | [55] 22.3 µM | [57] 33 µM
19.7 µM: [34]

CCCCC#C[I+]c1ccccc1
8.28 µM: [34]
inactive: [1] 21.5 µM | [2] 20.1 µM | [3] 22.4 µM | [4] 16.2 µM | [5] 20.1 µM | [58] 15.1 µM | [6] 17.2 µM | [59] 14.5 µM | [7] 15.9 µM | [8] 17.8 µM | [9] 15.4 µM | [11] 14.8 µM | [12] 14.2 µM | [13] 11.3 µM | [14] 14.5 µM | [15] 19.9 µM | [16] 14.1 µM | [17] 15.3 µM | [18] 16.4 µM | [19] 15.4 µM | [20] 16 µM | [21] 16.3 µM | [22] 17.7 µM | [23] 3.53 µM | [24] 15.5 µM | [25] 19.5 µM | [26] 9.71 µM | [27] 17 µM | [28] 31 µM | [29] 15.7 µM | [30] 22.4 µM | [31] 12.3 µM | [32] 15.2 µM | [33] 12.2 µM | [35] 17 µM | [36] 21.8 µM | [37] 15.1 µM | [38] 19.9 µM | [39] 3.82 µM | [40] 13.6 µM | [41] 16 µM | [42] 14.8 µM | [43] 15.6 µM | [44] 17.3 µM | [45] 16.9 µM | [46] 16.4 µM | [47] 14 µM | [48] 16.1 µM | [50] 15.6 µM | [51] 14.9 µM | [53] 11.7 µM | [54] 4.97 µM | [56] 15.5 µM | [55] 15.5 µM | [57] 18.3 µM
